According to patent publication US12259539B2, “Optical microscope” (SMI DRUG DISCOVERY LIMITED, priority 2019, dated 2025):

Target: T1, P2X1 receptor (Homo sapiens, UniProt P51575)
T1 construct: made in house
T1 sequence (P51575 1-399): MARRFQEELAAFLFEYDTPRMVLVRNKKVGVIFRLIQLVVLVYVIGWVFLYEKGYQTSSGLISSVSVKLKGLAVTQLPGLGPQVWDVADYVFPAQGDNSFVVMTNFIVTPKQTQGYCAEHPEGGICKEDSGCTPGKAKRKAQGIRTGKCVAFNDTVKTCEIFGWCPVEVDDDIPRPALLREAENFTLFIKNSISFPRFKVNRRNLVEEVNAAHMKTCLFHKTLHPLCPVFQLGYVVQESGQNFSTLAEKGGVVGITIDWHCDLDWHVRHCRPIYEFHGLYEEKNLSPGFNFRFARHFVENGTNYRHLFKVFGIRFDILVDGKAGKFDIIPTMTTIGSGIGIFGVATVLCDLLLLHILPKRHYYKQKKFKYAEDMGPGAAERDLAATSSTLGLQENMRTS
Experiment: Single molecule stochastic binding of ATP* to purified P2X1 reconstituted in lipid bilayers
Details: corrected for photophysical blinking and photochemical bleach; compared with bulk measurements
Text: Plasmids: A FLAG-tagged human P2X1 subunit construct was generated by fusion PCR, and cloned together with an IRES-IFP1.4 fusion PCR product as a three-point ligation into the Mlul/Spel digested pLV-T backbone (see Shu, X.; Royant, A.; Lin, M. Z.; Aguilera, T. A.; Lev-Ram, V.; Steinbach, P. A.; Tsien, R. Y. Science 2009, 324, 804; and Marquis, J.; Kampfer, S. S.; Angehrn, L.; Schumperli, D. Gene therapy 2009, 16, 70.)
Protein Purification: HEK 293T cells stably expressing the FLAG-P2X1 receptor were grown as monolayers in T300 plates. At a density of 80%, cells were washed once with phosphate buffered saline (PBS (mM); 0.1 NaCl, 2.0 Na2HPO4, 0.54 KCl, 0.4 KH2PO4, pH 7.4), mechanically detached into PBS, collected by centrifugation at 500 g for 5 min, snap frozen in liquid N2 and stored at −70° C. until needed. After defrosting, cells were diluted with 2 mL Tris-EDTA (50 mM Tris-HCl, 0.5 mM EDTA, pH 7.5) containing Halt Protease Inhibitor (Pierce, Thermo Scientific, IL, USA) and homogenized with a 5 mL cell-douncer, followed by trituration through 21-gauge and 27-gauge needles. […]

Substance: 2′/3′-O-(2-Aminoethyl-carbamoyl)-Adenosine-5′-triphosphate, labelled with ATTO-700 [ATP*]
- binding coefficients from single receptor binding data: statistically identical to overall bulk measurements
